According to paper PMC8041276 (ACS Chemical Neuroscience, 2021):

Legend:
α1A adrenoreceptor = molecular target: T1, α1A adrenoreceptor (Homo sapiens, UniProt P35348); test: Eurofins Cerep off-target binding, % inhibition at 1 μM
T1 construct: Eurofins Cerep (contract assay)
T1 sequence (P35348 1-466): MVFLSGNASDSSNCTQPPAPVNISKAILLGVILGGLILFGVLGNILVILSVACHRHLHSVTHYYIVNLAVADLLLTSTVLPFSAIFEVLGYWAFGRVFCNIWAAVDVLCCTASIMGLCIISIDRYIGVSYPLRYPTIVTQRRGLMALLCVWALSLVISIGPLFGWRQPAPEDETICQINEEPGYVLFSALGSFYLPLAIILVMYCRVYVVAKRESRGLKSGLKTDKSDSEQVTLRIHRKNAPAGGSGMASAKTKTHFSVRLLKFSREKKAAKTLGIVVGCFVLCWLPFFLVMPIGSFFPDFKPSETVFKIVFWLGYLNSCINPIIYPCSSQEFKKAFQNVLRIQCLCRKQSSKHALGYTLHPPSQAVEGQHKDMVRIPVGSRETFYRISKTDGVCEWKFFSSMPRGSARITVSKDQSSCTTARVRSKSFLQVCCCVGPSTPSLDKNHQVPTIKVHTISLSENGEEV
Protocol: (§1) Additionally, the affinity of compound 27 at the adrenergic α1A, muscarinic M1, histaminergic H1, dopaminergic D3, serotoninergic 5-HT2C, 5-HT3 receptors, serotonin transporter (SERT), and the human ether-a-go-go-related gene (hERG) channel were evaluated in Eurofins Cerep.

M1 muscarinic receptor = molecular target: T2, M1 muscarinic receptor (Homo sapiens, UniProt P11229); test: as above
T2 construct: Eurofins Cerep (contract assay)
T2 sequence (P11229 1-460): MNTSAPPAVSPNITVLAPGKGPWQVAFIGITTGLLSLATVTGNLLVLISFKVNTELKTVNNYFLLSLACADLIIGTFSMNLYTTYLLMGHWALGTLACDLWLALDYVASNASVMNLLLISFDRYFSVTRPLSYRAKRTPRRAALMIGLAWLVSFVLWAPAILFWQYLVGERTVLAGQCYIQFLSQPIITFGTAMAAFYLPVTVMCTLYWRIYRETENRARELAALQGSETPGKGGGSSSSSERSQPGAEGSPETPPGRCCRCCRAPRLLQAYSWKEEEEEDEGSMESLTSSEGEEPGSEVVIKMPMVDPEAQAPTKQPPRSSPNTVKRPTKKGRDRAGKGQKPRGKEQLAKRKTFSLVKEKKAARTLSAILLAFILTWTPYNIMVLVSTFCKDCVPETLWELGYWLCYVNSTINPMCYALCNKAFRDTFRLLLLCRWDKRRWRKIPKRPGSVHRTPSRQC
Protocol: as §1

`O=C(N[C@@H]1CCNC1)c1ccn(S(=O)(=O)c2cccc(Cl)c2)c1-c1ccc(F)cc1` [Compound 27, (R)-2-(4-Fluorophenyl)-1-[(3-chlorophenyl)sulfonyl]-N-(pyrrolidin-3-yl)-1H-pyrrole-3-carboxamide] gave an inhibition at 1 µM (α1A adrenoreceptor) of 15% and an inhibition at 1 µM (M1 muscarinic receptor) of 0%.
